# According to patent publication US20240299416A1, “TREATMENT OF NF-kB-MEDIATED DISEASE” (ReveraGen BioPharma, Inc., priority 2021, published 2024):
# Like-named read-outs stand apart in the source and are kept apart here.
# Key:
# [1] = cited from earlier work
# [2] = target: T1, mineralocorticoid receptor (Homo sapiens, UniProt P08235); details: cited from earlier work
# T1 sequence (P08235 1-984): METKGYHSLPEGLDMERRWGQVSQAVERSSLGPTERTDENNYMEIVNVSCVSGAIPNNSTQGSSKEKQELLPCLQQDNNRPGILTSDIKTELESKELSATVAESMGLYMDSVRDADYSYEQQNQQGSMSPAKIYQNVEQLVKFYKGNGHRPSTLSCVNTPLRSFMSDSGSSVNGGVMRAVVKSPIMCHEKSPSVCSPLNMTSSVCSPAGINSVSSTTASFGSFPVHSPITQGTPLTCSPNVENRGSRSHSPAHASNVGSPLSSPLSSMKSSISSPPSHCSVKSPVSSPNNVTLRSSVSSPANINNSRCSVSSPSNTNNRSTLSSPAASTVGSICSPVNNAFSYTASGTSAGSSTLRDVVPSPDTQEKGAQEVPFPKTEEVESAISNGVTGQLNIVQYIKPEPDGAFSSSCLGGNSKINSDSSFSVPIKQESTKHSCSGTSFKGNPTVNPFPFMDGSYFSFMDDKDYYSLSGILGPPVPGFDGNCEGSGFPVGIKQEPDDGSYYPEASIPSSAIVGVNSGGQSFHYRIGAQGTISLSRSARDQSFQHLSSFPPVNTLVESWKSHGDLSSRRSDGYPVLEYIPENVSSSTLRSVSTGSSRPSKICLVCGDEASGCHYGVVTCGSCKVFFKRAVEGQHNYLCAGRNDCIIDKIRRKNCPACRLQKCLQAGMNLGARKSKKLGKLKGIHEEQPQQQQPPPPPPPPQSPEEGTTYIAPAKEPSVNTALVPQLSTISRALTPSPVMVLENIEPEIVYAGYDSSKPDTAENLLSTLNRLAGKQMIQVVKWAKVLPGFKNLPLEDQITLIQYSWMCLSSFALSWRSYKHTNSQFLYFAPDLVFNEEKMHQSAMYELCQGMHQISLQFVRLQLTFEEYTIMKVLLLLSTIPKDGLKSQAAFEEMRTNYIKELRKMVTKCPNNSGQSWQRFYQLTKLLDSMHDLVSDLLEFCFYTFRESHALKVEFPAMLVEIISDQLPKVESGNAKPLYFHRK
# [3] = Griggs et al. 2016 double-blind trial, 12 months treatment, cited from earlier work
# [4] = tested on: boys with DMD; test: VBP15-004 efficacy at Week 48; format: in vivo, human; details: prednisone, Treatment Period 1
# Description: (§1) Subjects already on vamorolone continued on the allocated dose level. Efficacy at Week 48 was assessed by Time to Stand ([…]) velocity, 6-Minute Walk Test (6MWT), Time to Run/Walk 10 meters (TTRW) velocity, and North Star Ambulatory Assessment (NSAA). […] In contrast, the persistence of effects with vamorolone 2 mg/kg/day was less pronounced for some parameters. The safety profile was consistent for subjects who continued on the same dose of vamorolone throughout the study, with no increase in frequency or severity of adverse events being observed over time. […] In addition, vamorolone treatment at both doses reversed the growth impairment seen during prednisone treatment and was associated with fewer adverse events, including those associated with corticosteroid use.
# [5] = VBP15-004 adverse events at 24 weeks; set-up: species or system human; details: male, human, in vivo, 24 weeks
# Description: In certain embodiments, the symptom may be an adverse event of special interest (AESI). In this context, AESIs are prespecified based on pre-defined MedDRA search criteria for eleven AESI categories for the corticosteroid class and then further stratified into AESI of at least moderate severity. The symptoms for treating DMD with corticosteroids include, but is not limited to, behavior adverse events, blood glucose related problems, gastrointestinal symptoms, increased arterial blood pressure, immune suppression/infections, skin/hair changes, cataracts/glaucoma, cushingoid features, weight gain, bone fractures, slow growth.
# (§2) The second period of 24 weeks, where all participants receive vamorolone treatment on either of the two dose levels, will continue to capture additional longer-term safety and tolerability data.
# [6] = VBP15-004 adverse events, Treatment Period 2 / cross-over; format: in vivo, human; details: on prednisone (to Week 24), subjects later switched to vamorolone 6 mg/kg/day
# Description: as §1
# [7] = tested on: osteocalcin, P1NP, CTX; test: VBP15-004 bone turnover biomarkers; format: in vivo, human
# [8] = VBP15-004 height and BMI z-scores, 24 to 48 weeks; format: in vivo, human; details: for BMI mean z-score: prednisone
# Description: as §2
# Subjects already on vamorolone continued on the allocated dose level. Efficacy at Week 48 was assessed by Time to Stand (TTSTAND) velocity, 6-Minute Walk Test (6MWT), Time to Run/Walk 10 meters (TTRW) velocity, and North Star Ambulatory Assessment (NSAA). […] In contrast, the persistence of effects with vamorolone 2 mg/kg/day was less pronounced for some parameters. The safety profile was consistent for subjects who continued on the same dose of vamorolone throughout the study, with no increase in frequency or severity of adverse events being observed over time. […] In addition, vamorolone treatment at both doses reversed the growth impairment seen during prednisone treatment and was associated with fewer adverse events, including those associated with corticosteroid use.
# [9] = Growth (height percentile) and BMI vs external comparators; format: in vivo, human; details: CINRG prednisone trial, 0.75 mg/kg/day daily; for Mean BMI z-score, change from baseline (SD) / Mean BMI z-score, baseline value (SD): 0.75 mg/kg/day
# Description: As with the CINRG DNHS comparators, group-matching criteria were prespecified in the iSAP, and 2 independent statisticians carried out the participant matching. […] There was no corresponding 12-month assessment in vamorolone-treated participants. (Assessments of vamorolone-treated trial participants were 0, 3, 6, and 18 months).
# Standing height and weight were assessed at each study visit. Height z-score, body mass index (BMI; kg/m^2), and BMI z-score were calculated centrally. AE reporting was done per protocol in the vamorolone trials.
# The current study is the first to evaluate the longer-term tolerability, efficacy, and safety of vamorolone in DMD. […] Given the variable timing of dose escalations, it was prespecified that initial analyses of drug-related efficacy and safety would be limited to those participants who had 18 months of treatment with 2.0 mg/kg/day vamorolone or more (dose group C+dose group D; n=23). Outcomes for these participants were compared to a group-matched cohort from the CINRG DNHS over 18 months (corticosteroid-naïve, n=19; corticosteroid-treated, n=68). Participants were matched for age and treatment period (±1 month), matching criteria were prespecified in the statistical analysis plan. Two independent statisticians carried out the matching.
# Participants in the corticosteroid-treated CINRG DNHS group were treated for at least 18 months, but the total duration, dose, and regimens varied.
# [10] = Griggs et al. 2016, 0.9 mg/kg/day deflazacort, 0.75 mg/kg/day prednisone
smiles,measurement,setting,value
"CC(=O)OCC(=O)[C@@]12N=C(C)O[C@@H]1C[C@H]1[C@@H]3CCC4=CC(=O)C=C[C@]4(C)[C@H]3[C@@H](O)C[C@@]12C [Deflazacort, deflazacort]",Incidence of Cushingoid,[1]; CINRG DNHS,72%
same,Incidence of behavior change,[1]; CINRG DNHS,33%
same,Incidence of weight gain,[1]; CINRG DNHS,63%
same,Incidence of Cushingoid,[1]; [10],60.3%
same,Incidence of behavior change,[1]; [10],9%
same,Incidence of hypertrichosis/hirsutism,[1]; [10],35%
same,Incidence of weight gain,[1]; [10],27.9%
same,activity at the mineralocorticoid receptor,[2],agonists
same,change in height percentiles for age,[3],−11.4
same,change in height percentiles for age,[3]; listed as deflazacort,−11.43
"C[C@]12C=CC(=O)C=C1CC[C@@H]1[C@@H]2C(=O)C[C@@]2(C)[C@H]1CC[C@]2(O)C(=O)CO [Prednisone, prednisone]",6MWT distance,[4],407 meters
same,NSAA,[4],25.6 points
same,TTRW velocity,[4],2.20 m/s
same,TTSTAND velocity,[4],0.28 rises/s
same,"AESIs of at least moderate severity, F",[5],15
same,"Abnormal behavior, any severity, F",[5],2
same,"Abnormal behavior, moderate/severe, F",[5],1
same,"Aggression, any severity, F",[5],3
same,"Aggression, moderate/severe, F",[5],2
same,"All AESIs, F",[5],69
same,"All TEAEs, F",[5],120
same,"Anger, any severity, F",[5],1
same,"Any Behavior AESI, any severity, F",[5],16
same,"Any Behavior AESI, moderate/severe, F",[5],8
same,"Clinically relevant AEs, F",[5],19
same,"Emotional disorder, any severity, F",[5],1
same,"Emotional disorder, moderate/severe, F",[5],1
same,"Initial insomnia, any severity, F",[5],1
same,"Irritability, any severity, F",[5],1
same,"Mood swings, any severity, F",[5],2
same,"Mood swings, moderate/severe, F",[5],1
same,"Personality change, any severity, F",[5],1
same,"Personality change, moderate/severe, F",[5],1
same,"Psychomotor hyperactivity, any severity, F",[5],3
same,"Psychomotor hyperactivity, moderate/severe, F",[5],1
same,"Severe TEAEs (CTCAE Grade ≥3), F",[5],1
same,"Sleep disorder, any severity, F",[5],1
same,"Sleep disorder, moderate/severe, F",[5],1
same,"TEAEs leading to discontinuation, F",[5],1
same,"clinically relevant psychiatric events, subjects",[5],19.4%
same,"moderate/severe behavior problems, subjects",[5],22.6%
same,number of adverse events,[6],70
same,number of adverse events reported as behavioral disorders,[6],15
same,number of adverse events typically associated with corticosteroids,[6],40
same,"Osteocalcin, mean (SEM) change at Week 24",[7],−15.2 (2.7) ng/ml
same,"Procollagen 1 N-Terminal Propeptide (P1NP), mean (SEM) change at Week 24",[7]; Prednisone 0.75 mg,−134 (22) ng/mL
same,"Type I Collagen C-Telopeptides (CTX), mean (SEM) change at Week 24",[7]; Prednisone 0.75 mg,−300 (43) pg/mL
same,"effect on bone biomarkers (osteocalcin, PINP, CTX)","[7]; Week 24, vamorolone 2.0 and 6.0 mg/kg",strongly reduce all bone biomarkers
same,"height (z-score), absolute value, Mean","[8]; PDN/VAM 6 mg, Week 24",−0.38
same,change in height Z scores,"[8]; prednisone 0.75 mg/kg/day, baseline to Week 24",growth deceleration
same,BMI mean z-score,[8]; end of Treatment Period 1,1.40
same,BMI mean z-score,[8]; start of Treatment Period 1,0.94
same,activity at the mineralocorticoid receptor,[2],agonists
same,"Mean BMI z-score, value (SD) at 12 months",[9]; 12 months,1.068 (1.05)
same,"Mean height percentile for age, change from baseline (SD)",[9]; 12 months,−3.76 (10.44)
same,"Mean height percentile for age, value (SD) at 12 months",[9]; 12 months,26.14 (24.21)
same,"Mean BMI z-score, change from baseline (SD)",[9]; 12 months,0.459 (0.407)
same,"Mean BMI z-score, change from baseline (SD)","[9]; 12 months, listed as prednisone",0.46
same,"Mean height percentile for age, baseline value (SD)",[9]; baseline,29.89 (29.15)
same,"Mean BMI z-score, baseline value (SD)",[9]; baseline,0.61 (1.27)
same,"Mean BMI z-score, baseline value (SD)","[9]; baseline, listed as prednisone",0.61
